{"source": "patent US9649512B2", "about": "“One or more of Vigna marina, Cocos nucifera L. or Terminalia catappa L. extracts for treating wounds, skin disorders and hair loss” (CIMTECH PTY LIMITED, priority 2009, dated 2017)", "system": "epithelial surface of the backs of 18 month old ovarectomized and sham ovarectomized rats", "assay": "Parallel study of moisturiser and antibiotic on epithelial thickness", "assay_type": "in vivo, rat", "excerpt": "In a parallel study a moisturiser (hydroderm), the topical antibiotic Chloromycetin (chloramphenicol), coconut oil, or coconut oil extracted into ethanol were applied to the epithelial surface of the backs of 18 month old ovarectomized and sham ovarectomized rats and compared to the epithelial surface of an adjacent untreated site. […] The results also indicate that the changes noted in the epithelium are not related to any antimicrobial capacity of the extracts as the changes are not able to be replicated by chloramphenicol."}
{"smiles": "O=C(N[C@H](CO)[C@H](O)c1ccc([N+](=O)[O-])cc1)C(Cl)Cl", "note": "[Chloromycetin (chloramphenicol), chloramphenicol]", "values": [{"measurement": "thickness of the treated skin compared to the untreated adjacent skin", "result": "No significant difference"}]}
